Test results as given in US20220324796A1, “ANTIBIOTIC COMPOUNDS” (The General Hospital Corporation, priority 2019, published 2022).
Values after ≈ are worked out from the molar mass of the structure shown.

What was measured:
[1] = test system: MRSA BF2; test: MIC assay (micro-dilution); assay type: cell-based, S. aureus; settings: Staphylococcus aureus
Procedure: Minimal inhibitory concentration (MIC) assay. The MICs of antibiotics were determined by the standard micro-dilution method recommended by the Clinical and Laboratory Standards Institute. MIC assays were conducted in biological triplicate.
Antimicrobial activity of each analog was tested against four MRSA strains (MW2, BF1, BF2, and BF3), Pseudomonas aeruginosa (PA14), Klebsiella pneumonia (WGLW2), and Acinetobacter baumannii (ATCC 17978).

[2] = Giant unilamellar vesicles (GUVs) assay, bacterial mimetic
Procedure: Giant unilamellar vesicles (GUVs) assay. GUVs were prepared by slightly modifying the electroformation method described previously. 1,2-dioleoyl-sn-glycero-3-phosphocholine (DOPC), 1,2-dioleoyl-sn-glycero-3-phospho-(1′-rac-glycerol) (DOPG), 1-palmitoyl-2-oleoyl-glycero-3-phosphocholine (POPC), cholesterol (ovine wool) and 1,2-dioleoyl-sn-glycero-3-phosphoethanolamine-N-(lissamine rhodamine B sulfonyl) (18:1 Liss Rhod PE) were purchased from Avanti Polar Lipids (Alabaster, Ala., USA). 4 mM lipid mixtures consisting of DOPC/DOPG/18:1 Liss Rhod PE (7:3:0.005) and POPC/cholesterol/18:1 Liss Rhod PE (7:3:0.005) were dissolved in chloroform respectively. Same procedure was used to prepare both kinds of GUVs. Indium tin oxide (ITO)-coated slides (50×75×1.1 mm, Delta Technologies, Loveland, Colo., USA) were coated with […] of the lipid mixture and dried in a vacuum chamber for 2 h to remove chloroform. An electroformation chamber was made by placing a 2 mm thick Teflon spacer between the two lipid-coated ITO slides. […] After adding 1 μl of compound solution to a well (final compound concentration: 1× MIC), the GUVs were observed and imaged with an optical microscope equipped with fluorescence contrast and a digital camera (63x objectives, Axio Observer. A1 & AxioCam MRm, Zeiss, Germany). […]

[3] = test system: Gram-positive bacteria including S. aureus, Bacilius subtilis, and Enterococcus faecium; settings: previously described; cited from earlier work
[4] = Hepatic and renal toxicity (ALT, BUN) in infected mice; assay type: in vivo, mouse; settings: 30 mg/kg i.p., every 12 h for 3 days
Procedure: Deep-seated mouse thigh infection model. In vivo efficacy of bithionol alone or in combination with gentamicin against MRSA strain MW2 persisters was evaluated using a previously described neutropenic mouse thigh infection model with modifications. Six-week-old female CD-1 mice (20-25 g, Charles River Laboratories, Wilmington, Mass., USA) were rendered neutropenic by administering 150 mg/kg and 100 mg/kg of cyclophosphamide intraperitoneally (i.p.) at 4 days and 1 day before infection, respectively. On the day of infection, overnight culture of S. aureus MW2 were washed 3 times with sterile saline and diluted to ˜10^4 CFU/mL in saline. 50 μl of the diluted culture was injected to the right thigh of each mouse. Bithionol was dissolved in Kolliphor EL (Sigma-Aldrich, St Louis, Mo., USA)/ethanol 1:1 and then diluted 1:10 in saline to a final concentration of 30 mg/kg. […] The levels of alanine aminotransferase and blood urea nitrogen were analyzed with commercially available kits, following the manufacturer's protocol (Pointe Scientific, Canton, Mich., USA) to evaluate hepatic and renal toxicities. […] Statistical significance among each group in animal studies was analyzed by one-way ANOVA with post-hoc Tukey test using GraphPad Prism 7 (GraphPad Software, La Jolla, Calif., USA).

[5] = test system: MRSA MW2 biofilm persisters; test: Biofilm persister killing assay; assay type: cell-based, S. aureus
Procedure: Biofilm persister killing assay. An overnight culture of S. aureus MW2 cells was diluted 1:200 with TSB supplemented with 0.2% glucose and 3% NaCl. A 13 mm diameter Millipore mixed cellulose ester membrane (EMD Millipore GSWP01300) was placed at the bottom of each well of a 12-well assay plate (Falcon 353043). […] was added to each well and statically incubated at 37° C. for 24 h. The membranes were washed 3-times with PBS and transferred to a fresh 12-well plate, 1 mL PBS containing the desired concentration of antibiotics was added to each well, and then the plate was statically incubated at 37° C. for 24 h, The membranes were washed 3 times with PBS, placed in 2-mL microcentrifuge tubes containing 1 mL PBS, and sonicated in an ultrasonic bath (Fisher Scientific FS 30) for 10 min. The sonicated samples were serially diluted, spot-plated on TSA to enumerate the number of live cells. The experiment was conducted in biological triplicate.

Oc1c(Cl)cc(Cl)cc1Sc1cc(Cl)cc(Cl)c1O [bithionol, 6,6′-thio-bis-(2,4-dichlorophenol)]
MIC [1]: 0.5 µg/mL (≈ 1.4 µM) | effect on DOPC/DOPG GUVs ([2]; 1 μg/mL): Lipid aggregates formed on the surfaces of the GUVs | effect on DOPC/DOPG GUVs ([2]; 10 μg/mL): the GUVs burst | minimal inhibitory concentration (MIC) [3]: 8 to 15 µg/mL | hepatic or renal toxicity (ALT and BUN) [4]: no signs of hepatic or renal toxicity | time to complete eradication of biofilm persisters ([5]; 32 μg/mL (32× MIC)): ≤ 24 h | concentration completely eradicating biofilm persisters ([5]; 24 h treatment): 32 µg/mL
